# ChEMBL document CHEMBL1687752, “Impact of antifungal prophylaxis on colonization and azole susceptibility of Candida species” (2009)
# Tests used:
# Assay type in all cases: functional
# Nakaseomyces glabratus [1] = experiment: Antifungal activity against 25 days cultured Candida glabrata isolated from invasive fungal infected subject blood receiving antifungal therapy for 25 days after 3 days of prophylaxis by broth microdilution method
# Candida albicans [2] = experiment: Antifungal activity against Candida albicans isolated from HSCT recipients with acute or chronic GVHD receiving fluconazole by broth microdilution method
# Nakaseomyces glabratus [3] = experiment: Antifungal activity against 42 days cultured Candida glabrata isolated from neutropenic subject with AML or MDS stool after 48 days of prophylaxis by broth microdilution method
# Nakaseomyces glabratus [4] = experiment: Antifungal activity against 10 days cultured Candida glabrata isolated from neutropenic subject with AML or MDS stool receiving antifungal therapy for 37 days after 9 days of prophylaxis by broth microdilution method
# Nakaseomyces glabratus [5] = experiment: Antifungal activity against 35 days cultured Candida glabrata isolated from HSCT recipient with acute or chronic GVHD mouth receiving antifungal therapy for 165 days after 138 days of prophylaxis by broth microdilution method
# Nakaseomyces glabratus [6] = experiment: Antifungal activity against Candida glabrata isolated from neutropenic subject 1318 with AML or MDS stool receiving antifungal drug after 36 days prophylaxis by broth microdilution method
# Nakaseomyces glabratus [7] = experiment: Antifungal activity against 85 days cultured Candida glabrata isolated from HSCT recipient with acute or chronic GVHD mouth receiving antifungal therapy for 143 days after 116 days of prophylaxis by broth microdilution method
# Nakaseomyces glabratus [8] = experiment: Antifungal activity against 36 days cultured Candida glabrata isolated from neutropenic subject with AML or MDS pharynx after 48 days of prophylaxis by broth microdilution method
# Nakaseomyces glabratus [9] = experiment: Antifungal activity against 176 days cultured Candida glabrata isolated from HSCT recipient with acute or chronic GVHD mouth receiving antifungal therapy for 172 days after 114 days of prophylaxis by broth microdilution method
# Pichia kudriavzevii [10] = experiment: Antifungal activity against Candida krusei isolated from HSCT recipients with acute or chronic GVHD receiving fluconazole assessed as maximum MIC by broth microdilution method
# Saccharomyces cerevisiae = experiment: Antifungal activity against Saccharomyces cerevisiae isolated from HSCT recipient 513 with acute or chronic GVHD mouth after 112 days prophylaxis by broth microdilution method
# Nakaseomyces glabratus [11] = experiment: Antifungal activity against Candida glabrata isolated from HSCT recipient 474 with acute or chronic GVHD mouth after 124 days prophylaxis by broth microdilution method
# Candida albicans [12] = experiment: Antifungal activity against Candida albicans isolated from HSCT recipients with acute or chronic GVHD receiving posaconazole by broth microdilution method
# Candida albicans [13] = experiment: Antifungal activity against Candida albicans isolated from HSCT recipient 301 with acute or chronic GVHD mouth after 114 days prophylaxis by broth microdilution method
# Nakaseomyces glabratus [14] = experiment: Antifungal activity against Candida glabrata isolated from HSCT recipient 491 with acute or chronic GVHD mouth receiving antifungal drug after 112 days prophylaxis by broth microdilution method
# Nakaseomyces glabratus [15] = experiment: Antifungal activity against 23 days cultured Candida glabrata isolated from neutropenic subject with AML or MDS stool receiving antifungal therapy for 25 days after 3 days of prophylaxis by broth microdilution method
# Candida albicans [16] = experiment: Antifungal activity against Candida albicans isolated from HSCT recipient 042 with acute or chronic GVHD mouth receiving antifungal drug after 112 days prophylaxis by broth microdilution method
# Nakaseomyces glabratus [17] = experiment: Antifungal activity against 62 days cultured Candida glabrata isolated from HSCT recipient with acute or chronic GVHD mouth receiving antifungal therapy for 143 days after 116 days of prophylaxis by broth microdilution method
# Nakaseomyces glabratus [18] = experiment: Antifungal activity against Candida glabrata isolated from HSCT recipient 497 with acute or chronic GVHD mouth after 114 days prophylaxis by broth microdilution method
# Nakaseomyces glabratus [19] = experiment: Antifungal activity against 16 days cultured Candida glabrata isolated from HSCT recipient with acute or chronic GVHD mouth receiving antifungal therapy for 31 days after 28 days of prophylaxis by broth microdilution method
# Nakaseomyces glabratus [20] = experiment: Antifungal activity against Candida glabrata isolated from neutropenic subjects with AML or MDS receiving fluconazole assessed as maximum MIC by broth microdilution method
# Candida albicans [21] = experiment: Antifungal activity against Candida albicans isolated from neutropenic subjects with AML or MDS prior to initiation of posaconazole therapy assessed as maximum MIC by broth microdilution method
# Nakaseomyces glabratus [22] = experiment: Antifungal activity against -2 days cultured Candida glabrata isolated from HSCT recipient with acute or chronic GVHD mouth receiving antifungal therapy for 168 days after 113 days of prophylaxis by broth microdilution method
# Pichia kudriavzevii [23] = experiment: Antifungal activity against Candida krusei isolated from HSCT recipients with acute or chronic GVHD prior to initiation of posaconazole therapy assessed as maximum MIC by broth microdilution method
# Nakaseomyces glabratus [24] = experiment: Antifungal activity against Candida glabrata isolated from neutropenic subjects with AML or MDS receiving posaconazole by broth microdilution method
# Nakaseomyces glabratus [25] = experiment: Antifungal activity against Candida glabrata isolated from HSCT recipient 975 with acute or chronic GVHD mouth receiving antifungal drug after 112 days prophylaxis by broth microdilution method
# Nakaseomyces glabratus [26] = experiment: Antifungal activity against 31 days cultured Candida glabrata isolated from HSCT recipient with acute or chronic GVHD mouth receiving antifungal therapy for 31 days after 28 days of prophylaxis by broth microdilution method
# Candida tropicalis [27] = experiment: Antifungal activity against 2 days cultured Candida tropicalis isolated from neutropenic subject with AML or MDS stool receiving antifungal therapy for 45 days after 24 days of prophylaxis by broth microdilution method
# Nakaseomyces glabratus [28] = experiment: Antifungal activity against 56 days cultured Candida glabrata isolated from HSCT recipient with acute or chronic GVHD mouth receiving antifungal therapy for 172 days after 114 days of prophylaxis by broth microdilution method
# Pichia kudriavzevii [29] = experiment: Antifungal activity against 6 days cultured Candida krusei isolated from neutropenic subject with AML or MDS stool receiving antifungal therapy for 19 days after 6 days of prophylaxis by broth microdilution method
# Nakaseomyces glabratus [30] = experiment: Antifungal activity against 43 days cultured Candida glabrata isolated from HSCT recipient with acute or chronic GVHD mouth receiving antifungal therapy for 172 days after 114 days of prophylaxis by broth microdilution method
# Candida albicans [31] = experiment: Antifungal activity against Candida albicans isolated from HSCT recipient 262 with acute or chronic GVHD mouth receiving antifungal drug after 115 days prophylaxis by broth microdilution method
# Nakaseomyces glabratus [32] = experiment: Antifungal activity against 29 days cultured Candida glabrata isolated from neutropenic subject with AML or MDS stool after 48 days of prophylaxis by broth microdilution method
# Candida tropicalis [33] = experiment: Antifungal activity against 2 days cultured Candida tropicalis isolated from neutropenic subject with AML or MDS pharynx receiving antifungal therapy for 45 days after 24 days of prophylaxis by broth microdilution method
# Nakaseomyces glabratus [34] = experiment: Antifungal activity against Candida glabrata isolated from HSCT recipients with acute or chronic GVHD prior to initiation of fluconazole therapy assessed as maximum MIC by broth microdilution method
# Nakaseomyces glabratus [35] = experiment: Antifungal activity against 12 days cultured Candida glabrata isolated from HSCT recipient with acute or chronic GVHD mouth receiving antifungal therapy for 143 days after 116 days of prophylaxis by broth microdilution method
# Pichia kudriavzevii [36] = experiment: Antifungal activity against 14 days cultured Candida krusei isolated from neutropenic subject with AML or MDS pharynx after 12 days of prophylaxis by broth microdilution method
# Pichia kudriavzevii [37] = experiment: Antifungal activity against 16 days cultured Candida krusei isolated from neutropenic subject with AML or MDS pharynx receiving antifungal therapy for 19 days after 6 days of prophylaxis by broth microdilution method
structure (smiles),measurement,setting,value
CCC(C)n1ncn(-c2ccc(N3CCN(c4ccc(OCC5COC(Cn6cncn6)(c6ccc(Cl)cc6Cl)O5)cc4)CC3)cc2)c1=O (configuration not stated) [ITRACONAZOLE],MIC,Nakaseomyces glabratus [1],2 µg/mL
same,MIC50,Candida albicans [2],0.03 µg/mL
same,MIC90,Candida albicans [2],16 µg/mL
same,MIC,Nakaseomyces glabratus [3],1 µg/mL
same,MIC,Nakaseomyces glabratus [4],2 µg/mL
same,MIC,Nakaseomyces glabratus [5],8 µg/mL
same,MIC,Nakaseomyces glabratus [6],> 8 µg/mL
same,MIC,Nakaseomyces glabratus [7],8 µg/mL
same,MIC,Nakaseomyces glabratus [8],1 µg/mL
same,MIC,Nakaseomyces glabratus [9],8 µg/mL
same,MIC,Pichia kudriavzevii [10],16 µg/mL
same,MIC,Saccharomyces cerevisiae,0.5 µg/mL
same,MIC,Nakaseomyces glabratus [11],4 µg/mL
same,MIC50,Candida albicans [12],0.03 µg/mL
same,MIC90,Candida albicans [12],0.25 µg/mL
same,MIC,Candida albicans [13],< 0.015 µg/mL
same,MIC,Nakaseomyces glabratus [14],2 µg/mL
same,MIC,Nakaseomyces glabratus [15],0.125 µg/mL
same,MIC,Candida albicans [16],0.06 µg/mL
same,MIC,Nakaseomyces glabratus [17],8 µg/mL
same,MIC,Nakaseomyces glabratus [18],1 µg/mL
same,MIC,Nakaseomyces glabratus [19],< 1 µg/mL
same,MIC,Nakaseomyces glabratus [20],8 µg/mL
same,MIC,Candida albicans [21],0.03 µg/mL
same,MIC,Nakaseomyces glabratus [22],1 µg/mL
same,MIC,Pichia kudriavzevii [23],16 µg/mL
same,MIC50,Nakaseomyces glabratus [24],0.5 µg/mL
same,MIC90,Nakaseomyces glabratus [24],8 µg/mL
same,MIC,Nakaseomyces glabratus [25],8 µg/mL
same,MIC,Nakaseomyces glabratus [26],< 1 µg/mL
same,MIC,Candida tropicalis [27],< 0.015 µg/mL
same,MIC,Nakaseomyces glabratus [28],0.5 µg/mL
same,MIC,Pichia kudriavzevii [29],0.5 µg/mL
same,MIC,Nakaseomyces glabratus [30],2 µg/mL
same,MIC,Candida albicans [31],0.06 µg/mL
same,MIC,Nakaseomyces glabratus [32],1 µg/mL
same,MIC,Candida tropicalis [33],0.03 µg/mL
same,MIC,Nakaseomyces glabratus [34],32 µg/mL
same,MIC,Nakaseomyces glabratus [35],4 µg/mL
same,MIC,Pichia kudriavzevii [36],0.25 µg/mL
same,MIC,Pichia kudriavzevii [37],0.5 µg/mL
OC(Cn1cncn1)(Cn1cncn1)c1ccc(F)cc1F [FLUCONAZOLE],MIC,Nakaseomyces glabratus [1],8 µg/mL
same,MIC50,Candida albicans [2],1 µg/mL
same,MIC90,Candida albicans [2],64 µg/mL
same,MIC,Nakaseomyces glabratus [3],8 µg/mL
same,MIC,Nakaseomyces glabratus [4],8 µg/mL
same,MIC,Nakaseomyces glabratus [5],64 µg/mL
same,MIC,Nakaseomyces glabratus [6],> 64 µg/mL
same,MIC,Nakaseomyces glabratus [7],64 µg/mL
same,MIC,Nakaseomyces glabratus [8],8 µg/mL
same,MIC,Nakaseomyces glabratus [9],32 µg/mL
same,MIC,Pichia kudriavzevii [10],64 µg/mL
same,MIC,Saccharomyces cerevisiae,8 µg/mL
same,MIC,Nakaseomyces glabratus [11],16 µg/mL
same,MIC50,Candida albicans [12],0.25 µg/mL
same,MIC90,Candida albicans [12],16 µg/mL
same,MIC,Candida albicans [13],< 0.125 µg/mL
same,MIC,Nakaseomyces glabratus [14],32 µg/mL
same,MIC,Nakaseomyces glabratus [15],4 µg/mL
same,MIC,Candida albicans [16],1 µg/mL
same,MIC,Nakaseomyces glabratus [17],64 µg/mL
same,MIC,Nakaseomyces glabratus [18],16 µg/mL
same,MIC,Nakaseomyces glabratus [19],< 2 µg/mL
same,MIC,Nakaseomyces glabratus [20],16 µg/mL
same,MIC,Candida albicans [21],2 µg/mL
same,MIC,Nakaseomyces glabratus [22],64 µg/mL
same,MIC,Pichia kudriavzevii [23],64 µg/mL
same,MIC50,Nakaseomyces glabratus [24],8 µg/mL
same,MIC90,Nakaseomyces glabratus [24],64 µg/mL
same,MIC,Nakaseomyces glabratus [25],128 µg/mL
same,MIC,Nakaseomyces glabratus [26],< 4 µg/mL
same,MIC,Candida tropicalis [27],0.25 µg/mL
same,MIC,Nakaseomyces glabratus [28],4 µg/mL
same,MIC,Pichia kudriavzevii [29],64 µg/mL
same,MIC,Nakaseomyces glabratus [30],16 µg/mL
same,MIC,Candida albicans [31],2 µg/mL
same,MIC,Nakaseomyces glabratus [32],8 µg/mL
same,MIC,Candida tropicalis [33],0.25 µg/mL
same,MIC,Nakaseomyces glabratus [34],64 µg/mL
same,MIC,Nakaseomyces glabratus [35],64 µg/mL
same,MIC,Pichia kudriavzevii [36],64 µg/mL
same,MIC,Pichia kudriavzevii [37],64 µg/mL
